The source of these data is patent US8058414B2, “Unnatural polymerase substrates that can sustain enzymatic synthesis of double stranded nucleic acids from a nucleic acid template and methods of use” (Life Technologies Corporation, priority 2008, dated 2011).

Some results are limits rather than exact numbers.

For experiment [1], the target named is T1, Klenow enzyme (Escherichia coli, UniProt P00582).
T1 construct: Klenow enzyme at 37° C. for 1 minute
Briefly: Polymerase extension of FAM labeled primer over (AAG)14 template. It is filed as biochemical. To be noted: for extension over (AAG)14 template (electropherogram): FIG. 12, with dCTP, FAM labeled primer. As to the method:
In order to determine if a polymerase would continue to extend an unnatural DNA (i.e., a DNA including moieties not present in natural DNA) comprising residues having amino groups, an experiment was designed using aminopropargyl-dUTP (deoxyuridine triphosphate) and dCTP (deoxycytidine triphosphate) which yields extended DNA having residues with terminal amino functional groups on the incorporated dUTP moieties. The dUTP used is represented by the formula: […]
The experiment was conducted using an FAM (i.e., 6-carboxyfluorescein) labeled primer over an (AAG)14 [SEQ ID NO: 1] template.
These substrates were tested against the same template/primer system used in the experiments shown in FIGS. 12A and 12B {i.e., Klenow enzyme at 37° C. for 1 minute over an (AAG)14 [SEQ ID NO: 1] template}. The concentration of the nucleotides for this experiment was 5 μM. The results of this experiment are summarized in the electropherogram of FIG. 13C.
Similar experiments were conducted over the same template for natural dCTP/dTTP, with results shown in the electropherogram of FIG. 13A, and the methylpropynyl analogs of these substrates, with results shown in the electropherogram of FIG. 13B.

The subject of experiment [2] is Therminator (NEB) DNA polymerases. Briefly: Evaluation of termination and mis-incorporation properties of γ-substituted-dNTP's (capillary electrophoresis of primer extension). It is filed as biochemical. To be noted: for termination properties (overall) / extension to the first correct base / consumption of the primer / further incorporation over the 2nd correct base (template 2) / activity / incorporation / mis-incorporation: 1 μM substrate; for extension to the first correct base / consumption of the primer: after 10 minutes; for further incorporation over the 2nd correct base (template 2): after 60 minutes. On the procedure: FIGS. 21A-21D are electropherograms showing the termination properties of γ-phosphate substituted dUTP analogs having an O-propargyl-S-substituent at the 5 position over a p(dA) template.
[drawing 12] wherein R1 is a methyl group. The substrate concentration was 1 μM. FIG. 21A is an electropherogram for the primer. FIGS. 21B-D are the electropherograms after 10, 30 and 60 minutes of extension, respectively.
FIGS. 22A-22D are electropherograms showing the mis-incorporation properties of γ-phosphate substituted dUTP analogs having an O-propargyl-S-substituent at the 5 position and a benzyl group as a γ-phosphate substituent. The nucleotide analog used in these experiments had the same general structure as set forth above in the description of FIGS. 21A-21D. For these experiments, all reactions were conducted for 10 minutes at a substrate concentration of 1 μM using Mg^2+. Two templates were used:
General procedure for evaluation of termination properties of γ-substituted-dNTP's comprising silver ion cleavable linker arms attached to the base. All evaluations performed with Therminator (NEB) DNA polymerases were 3′ to 5′ exonuclease negative. Three types of templates were used in testing each substrate, where N denotes the complement of the base that is being evaluated for its termination properties, and the underlined portion of the target is the priming site: 1) a single correct base immediately after the priming site followed by incorrect bases; 2) two correct bases immediately after the priming site followed by incorrect bases; 3) each incorrect base followed by the correct base and then additional incorrect bases. The first two primers were used to show incorporation and termination, while the third set of templates was used to study mis-incorporation. All substrates were evaluated by capillary electrophoresis with analysis for extension of 0, 1, or 2 bases from a fluorescein labeled −21 M13 primer (the binding site of the primer corresponds to the underlined portion of the templates shown below).
Templates were pre-hybridized to the primer at 2 μM final concentration. The final assay concentration of the primer/template hybrid was 40 nM.
Unless otherwise noted, substrates were tested at 1 μM final concentration with 1 μL of the appropriate commercial enzyme at the concentration supplied by the manufacturer (usually 2-5 U/μL in 2× buffer composed of 40 mM Tris, pH 7.6, 10 mM DTT, 10 mM […] and 30 mM isocitrate). Each buffer was used at 1× in the final assay.
Generally, assays were set up as 10 μL final volume and run at 65° C. The termination properties were evaluated at 10 minutes, 30 minutes and 1 hr. At the end of each reaction, […] of the reaction mix was pipetted into 25 μL of 0.5 M EDTA, to quench the reaction, in a streptavidin coated microtiter plate well (Applied Biosystems Part No. 4357279) to capture the biotin labeled template for purification of the primer. Plates were shaken at room temperature for 10 minutes. Excess fluid was discarded and the microtiter wells were washed 3× with 4×SSC containing 0.1% Tween 20. Plates were centrifuged briefly upside down to remove excess buffer. To remove the primer from the template, 20 μL of HiDi Formamide (Applied Biosystems Part No. 4311320) was added with size ladder (LIZ® dye-labeled SNPlex™ internal size standard) to each well. The plate was incubated at 50° C. with shaking for 10 minutes. […] of the HiDi Formamide solution was transferred to a 96 well plate (Applied Biosystems Part No. N8010560) and covered with a 96 well plate septa (Applied Biosystems Part No. 4315933). Samples were separated electrophoretically on an AB 3100XL with a 36 cm capillary with POP6™ polymer separating media. The peaks were analyzed with either GeneScan® Software or Peak Scanner™ software, both from Applied Biosystems.

[3] abbreviates: 5 μM substrate, after 30 minutes.

T1 sequence (P00582 324-928): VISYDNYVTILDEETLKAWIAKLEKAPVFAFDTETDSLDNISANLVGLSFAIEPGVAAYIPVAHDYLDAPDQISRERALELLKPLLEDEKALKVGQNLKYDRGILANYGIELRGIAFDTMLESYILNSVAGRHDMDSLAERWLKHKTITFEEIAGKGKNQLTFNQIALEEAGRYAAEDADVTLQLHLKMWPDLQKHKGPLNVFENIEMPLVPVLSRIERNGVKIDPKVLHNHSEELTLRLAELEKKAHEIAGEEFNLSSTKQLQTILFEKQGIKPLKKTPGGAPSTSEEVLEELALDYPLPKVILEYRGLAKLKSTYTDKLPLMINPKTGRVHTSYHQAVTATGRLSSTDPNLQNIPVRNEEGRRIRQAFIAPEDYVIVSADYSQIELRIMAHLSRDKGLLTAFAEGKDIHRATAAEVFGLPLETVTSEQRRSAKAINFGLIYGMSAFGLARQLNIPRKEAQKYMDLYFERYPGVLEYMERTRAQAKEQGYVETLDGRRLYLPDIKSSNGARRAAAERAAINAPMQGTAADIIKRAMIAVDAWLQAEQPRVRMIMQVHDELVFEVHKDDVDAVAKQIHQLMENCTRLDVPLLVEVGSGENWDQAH

As for `CC#CCNC(=O)CO`, in experiment [1] (FIG. 13, Klenow enzyme at 37° C. for 1 minute, nucleotides 5 μM), the “synthesis of the extension product over (AAG)14 template” value is given as “excellent synthesis of the extension product”.

With `NCC#Cc1cn([C@H]2C[C@H](O)[C@@H](COP(=O)(O)OP(=O)(O)OP(=O)(O)O)O2)c(=O)[nH]c1=O` [aminopropargyl-dUTP], the “extension over (AAG)14 template (electropherogram)” value in experiment [1] (42 base target template) was “poor extension”. For the same molecule, in experiment [1] (FIG. 12B, 42 base target template), the “extent of extension over the template” value is no more than 14 bases.

As to `Nc1ncnc2c1ncn2[C@H]1C[C@H](O)[C@@H](COP(=O)(O)OP(=O)(O)OP(=O)(O)OCc2ccccc2)O1` [compound 27, γ-benzyl-dATP], in experiment [2], the “termination properties (overall)” value was “excellent termination properties”, the “extension to the first correct base / consumption of the primer” value is reported as “almost complete consumption of the primer” and the “further incorporation over the 2nd correct base (template 2)” value is “no further incorporation is observed”.

`C[n+]1ccn(CCOP(=O)(O)OP(=O)(O)OP(=O)(O)OCC2OC(n3ccc(N)nc3=O)CC2O)c1` (stereo not drawn) [compound 28, γ-(2-(N-(3-methylimidazolium))-ethyl)-dCTP]: in experiment [2], the activity entry is “quite low”. Further, in experiment [2] (after 1 hr.), the incorporation result is “significant incorporation” and the mis-incorporation entry was “no mis-incorporation is observed”. For the same molecule, in experiment [2] (setting [3]), the “consumption of the primer” value is “completely consumed” and the “extension past the first base on the GG template” value is recorded as “only a trace of extension”.

In the case of `C[n+]1ccn(CCOP(=O)(O)OP(=O)(O)OP(=O)(O)OC[C@H]2O[C@@H](n3cnc4c(=O)[nH]c(N)nc43)C[C@@H]2O)c1` [compound 29, γ-(2-(N-(3-methylimidazolium))-ethyl)-dGTP], the activity entry in experiment [2] is listed as “quite low”. In experiment [2] (after 1 hr.), the incorporation entry is “significant incorporation” and the mis-incorporation entry is “no mis-incorporation is observed”. Also, in experiment [2] (4 μM substrate, after 1 hr.), the “consumption of the primer” value is reported as “completely consumed” and the “extension past the first base on the CC template” value was “only a trace of extension”.

Take methylpropynyl dUTP: the “extension over (AAG)14 template (electropherogram)” value in experiment [1] (42 base target template) was “extension to a single product”.

In the case of γ-methyl-dUTP [compound 26], in experiment [2], the “termination properties (overall)” value was “excellent termination properties”, the “extension to the first correct base / consumption of the primer” value was “almost complete consumption of the primer” and the “further incorporation over the 2nd correct base (template 2)” value is listed as “No further incorporation is observed”. In experiment [2] (listed as drawing 12), the “extension to the first correct base / consumption of the primer” value was “almost complete” and the “further incorporation over the 2nd correct base (template 2)” value is “no observable incorporation”. The “incorporation into the AA template” value in experiment [2] (FIG. 22B, 10 minutes, 1 μM, Mg2+) is recorded as “is incorporated into the AA template”. Moreover, the “mis-incorporation over the dG or dT in the GA and TA templates” value in experiment [2] (FIG. 22C-D, 10 minutes, 1 μM, Mg2+) was “is not mis-incorporated”.
